This note sets out measurements from publication PMC10535842, “Novel Thiazole-Based SIRT2 Inhibitors Discovered via Molecular Modelling Studies and Enzymatic Assays” (Pharmaceuticals, 2023).

For one test, the target named is T1, recombinant SIRT2 (Homo sapiens, UniProt Q8IXJ6).
T1 sequence (Q8IXJ6 1-389): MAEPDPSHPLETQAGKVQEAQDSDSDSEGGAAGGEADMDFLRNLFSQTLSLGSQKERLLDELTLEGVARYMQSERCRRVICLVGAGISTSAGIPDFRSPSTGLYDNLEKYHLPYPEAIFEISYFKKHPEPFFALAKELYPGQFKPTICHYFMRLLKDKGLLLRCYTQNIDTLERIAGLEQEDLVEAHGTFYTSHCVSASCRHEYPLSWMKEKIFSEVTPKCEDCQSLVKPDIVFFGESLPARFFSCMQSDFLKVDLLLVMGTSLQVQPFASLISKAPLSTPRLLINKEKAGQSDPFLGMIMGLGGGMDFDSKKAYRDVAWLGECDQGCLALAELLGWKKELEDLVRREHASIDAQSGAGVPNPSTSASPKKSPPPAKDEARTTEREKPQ
Put plainly: SIRT2 deacetylase activity, recombinant SIRT2 incubated with acetylated peptide H3K9Ac and NAD+. Type of test: biochemical. To be noted: recombinant protein. As for the experimental part: The effect of the in silico screened compounds on the SIRT2 deacetylase activity was evaluated thanks to the incubation of recombinant SIRT2 with an acetylated peptide (H3K9Ac, a peptide acetylated on Lys 9) and NAD^+.

The target in a further test is SIRT6 (Homo sapiens, UniProt Q8N6T7). Put plainly: SIRT6 deacetylase and depalmitoylase activity (H3K9Ac / H3K9Palm peptides). Format: biochemical. As for the experimental part:
The synthesis of peptides H3K9Ac and H3K9Palm and the evaluation of the SIRT2 deacetylase activity and of the SIRT6 deacetylase and depalmitoylase activity were carried out as previously described. The IC50 of compound 1a was determined as in [43].

The subject of test [1] is SIRT2 activity (acetylation status of α-tubulin). As to the kind of experiment: α-tubulin acetylation in cultured CFBE41o- cells (immunoblotting). Format: cell-based, human. To be noted: 10 μM. As for the experimental part: Finally, experiments were performed to determine whether compound 1a was active in intact cells. The acetylation status of α-tubulin, a known target of SIRT2 deacetylase activity, was used to monitor SIRT2 activity in human cells.
The cells were incubated with 10 μM of compound 1a or the respective amount of vehicle DMSO, and were used for protein lysate generation; then, the total and acetylated α-tubulin levels were detected by Immunoblotting. The levels of acetylated α-tubulin were quantified, normalized to the total α-tubulin, and expressed as percentage increase vs. vehicle-treated cells. One representative Western blot analysis and the mean ± SD of 3 quantifications are shown. **, p < 0.01.
The bronchial epithelial CFBE41o- cells were cultured as in [20]. […] The proteins were subsequently transferred to nitrocellulose membranes and the expression of the total or acetylated α-tubulin was detected using the following primary antibodies: anti-α-tubulin (rabbit polyclonal, #2125, Cell Signalling Technology, Danvers, MA, USA) and anti-acetylated α-tubulin (rabbit polyclonal, #5335, Cell Signalling Technology). Following incubation with the appropriate secondary antibodies and Amersham ECL detection (Cytiva, Milano, Italy), the band intensity was quantified using the ChemiDoc imaging system (Bio-Rad, Milan, Italy). α-tubulin acetylation was normalized to the total α-tubulin levels.

Another test addresses T2, recombinant human HSP70 (Homo sapiens, UniProt P0DMV8).
T2 construct: made in house; host or cells: E. coli BL21 (DE3)
As to the kind of experiment: HSP70 ATPase catalytic activity, Malachite green assay. To be noted: 300 μM final concentration; read-out: percentage of inhibition of HSP70 ATPase activity. Format: biochemical. As for the experimental part:
The impact of selected molecules on the ATPase catalytic activity of an in-house produced recombinant human HSP70 protein was determined using the Malachite green assay, incubating the recombinant protein with ATP in the presence or absence of different compounds (300 μM final concentration). The percentage of inhibition exerted by the selected compounds on the ATPase activity was as follow: 1a, 49 ± 2%; 2a, 40 ± 1%; 3a, 44 ± 4%; 4a, 20 ± 1%; 5a, 19 ± 1%; 6a, 37 ± 1%; 7a, 47 ± 1%.
The recombinant human Hsp70 protein was produced in BL21 (DE3) E. coli transformed with the pET-6xHis/hHSP70 plasmid containing the coding sequence for human HSP70 (hHSPA1A gene, NM_005345.6; purchased from Vector Builder, Vector ID VB210930). This vector allowed for producing an N-terminal 6xHis tag fusion HSP70 protein.
BL21 cells containing the vector were initially grown in Luria−Bertani medium at 37 °C (Merck, Milan, Italy) with 200 μg/mL ampicillin until the culture reached an OD600 of 0.5. The 6xHis/hHSP70 fusion protein was expressed by adding isopropyl-β-d-thiogalactopyranoside (final concentration of 0.2 mM) and incubating the bacteria culture at 37 °C for 2 h. The cells were harvested by centrifugation and then lysed by sonication in 20 mM Tris-HCl, 250 mM KCl, and 10 mM MgCl2 pH 7.4; after the addition of Triton X-100 to a final concentration of 1% and incubation for 30 min at 4 °C, the lysates were centrifugated at 10,000× g for 15 min. The HSP70 protein was purified by affinity chromatography using His GraviTrap TALON columns (Euroclone, Milan, Italy). Briefly, after loading the lysate, the resin was washed twice with 20 mM Tris-HCl, 250 mM KCl, and 10 mM MgCl2 pH 7.4 and twice with the same buffer containing 10 mM of imidazole. The elution of the recombinant protein was obtained with 150 mM imidazole, pH 7.4. Imidazole was removed from the recombinant protein through overnight dialysis using a dialysis tubing membrane (Merck KGaA, Frankfurter Strasse 250 Darmstadt, Germany) and the protein was concentrated using a Centricon (Merck Millipore, 11 Avenida Norte Bis No. 513, San Salvador, El Salvador). The protein concentrations were determined using the Bradford assay (Bio-Rad Laboratories, Inc. Italy, Segrate) and the protein purity was monitored using SDS-PAGE.
The ATPase catalytic activity of recombinant human HSP70 was measured with a colorimetric assay using the malachite green reagent. Briefly, 6 µM of HSP70 protein was incubated for 30 min at 37 °C with 5 mM ATP in 20 mM Tris-HCl, 250 mM KCl, 10 mM MgCl2, and 0.02%TritonX-100, pH 7.4. The released phosphates were quantified by adding the malachite green reagent to an aliquot of this incubation and the absorbance was recorded at 620 nm using a Clariostar plate reader. The effects of thiazoles-based molecules on the ATPase catalytic activity were measured by adding (or not) the different molecules to the incubation (at 300 µM final concentration). To correct for non-enzymatic hydrolysis of ATP and for a specific absorbance of molecules, the absorbance signal of identically treated samples lacking the HSP70 protein was subtracted.

“Also recorded” adds a separate entry of the source.

SIRT6, sequence (Q8N6T7 whole entry): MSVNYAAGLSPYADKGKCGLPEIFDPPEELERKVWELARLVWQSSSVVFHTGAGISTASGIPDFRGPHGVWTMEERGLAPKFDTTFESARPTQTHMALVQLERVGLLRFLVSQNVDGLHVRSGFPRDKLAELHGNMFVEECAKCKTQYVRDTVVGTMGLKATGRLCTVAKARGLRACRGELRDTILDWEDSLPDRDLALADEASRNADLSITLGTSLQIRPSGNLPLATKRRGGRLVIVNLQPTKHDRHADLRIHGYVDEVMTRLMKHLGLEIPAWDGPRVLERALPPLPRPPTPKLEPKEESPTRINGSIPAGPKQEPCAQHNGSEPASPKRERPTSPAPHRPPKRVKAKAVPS
T2 sequence (P0DMV8 whole entry): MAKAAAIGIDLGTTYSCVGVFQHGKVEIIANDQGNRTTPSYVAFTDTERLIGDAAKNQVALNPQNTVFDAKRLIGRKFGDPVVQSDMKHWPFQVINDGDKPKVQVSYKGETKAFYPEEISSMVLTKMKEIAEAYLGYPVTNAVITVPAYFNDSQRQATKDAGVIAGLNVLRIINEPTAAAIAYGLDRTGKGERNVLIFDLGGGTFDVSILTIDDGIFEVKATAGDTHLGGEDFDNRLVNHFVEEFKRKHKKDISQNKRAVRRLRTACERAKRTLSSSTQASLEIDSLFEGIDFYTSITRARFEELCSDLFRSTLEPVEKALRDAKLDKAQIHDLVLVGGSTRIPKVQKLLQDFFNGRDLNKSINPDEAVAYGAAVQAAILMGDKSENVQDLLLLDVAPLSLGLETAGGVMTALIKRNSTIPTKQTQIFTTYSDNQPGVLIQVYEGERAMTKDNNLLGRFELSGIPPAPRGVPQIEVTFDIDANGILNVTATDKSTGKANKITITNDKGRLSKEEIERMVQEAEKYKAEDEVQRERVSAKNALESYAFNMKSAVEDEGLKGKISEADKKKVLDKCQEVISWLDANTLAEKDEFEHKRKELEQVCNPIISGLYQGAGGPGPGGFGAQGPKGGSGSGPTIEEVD

What is called inhibition is the percentage by which the read-out fell short of the control. One may read the IC50 as the concentration needed to halve the response being measured. As for `CSc1cccc(Nc2nc(-c3nc4ccccc4s3)cs2)c1` [Compound 1a], the inhibition at 150 µM on recombinant SIRT2 (150 μM) turned out to be 72 ± 8%. At recombinant SIRT2, the IC50 worked out at 45.1 ± 5 µM. Also, on SIRT6, the “effect on SIRT6 deacetylase activity” value is recorded as “did not significantly affect” and the “selectivity over SIRT6” value was “selective over SIRT6”. Also, the “effect on SIRT6 depalmitoylase activity” value at SIRT6 (palmitoylated peptide H3K9Palm) was “did not significantly affect”. The “α-tubulin acetylation (acetylated normalized to total α-tubulin, vs vehicle)” value in test [1] is recorded as “higher levels of the acetylated SIRT2 substrate; also recorded: increased α-tubulin acetylation”. Besides, the inhibition at 300 µM on recombinant human HSP70 is 49 ± 2%.
